Laboratory results reported in ChEMBL document CHEMBL1153701, “Synthesis and evaluation of antiallodynic and anticonvulsant activity of novel amide and urea derivatives of valproic acid analogues” (2009).
The source made the active and inactive calls. The rule behind the calls is not given here.

Key:
Mus musculus [1] = test: Antiepileptic activity in ip dosed CF1 mouse assessed as inhibition of maximal electroshock-induced seizures; type: functional
Rattus norvegicus [2] = test: Antiallodynic activity in ip dosed rat assessed as protection against spinal nerve ligation-induced neuropathic pain; type: functional
Rattus norvegicus [3] = organism: Rattus norvegicus; test: Ratio of ED50 for antiallodynic activity in rat assessed as protection against spinal nerve ligation-induced neuropathic pain to ED50 for antiepileptic activity in rat by maximal electroshock-induced seizures assay; type: functional
Mus musculus [4] = test: Antiepileptic activity in CF1 mouse assessed as inhibition of subcutaneous pentylenetetrazole-induced seizures at 30 mg/kg, ip after 0.5 hrs; type: functional, organism-based; design: dose 30 mg/kg
Rattus norvegicus [5] = test: Antiallodynic activity in rat assessed as protection against spinal nerve ligation-induced neuropathic pain at 80 mg/kg, ip after 120 mins; type: functional, organism-based; design: dose 80 mg/kg
Mus musculus [6] = test: Antiepileptic activity in CF1 mouse assessed as inhibition of maximal electroshock-induced seizures at 300 mg/kg, ip after 0.5 hrs; type: functional, organism-based; design: dose 300 mg/kg
Mus musculus [7] = test: Antiepileptic activity in CF1 mouse assessed as inhibition of maximal electroshock-induced seizures at 300 mg/kg, ip after 4 hrs; type: functional, organism-based; design: dose 300 mg/kg
Mus musculus [8] = test: Antiepileptic activity in CF1 mouse assessed as inhibition of maximal electroshock-induced seizures at 100 mg/kg, ip after 4 hrs; type: functional, organism-based; design: dose 100 mg/kg
Mus musculus [9] = test: Antiepileptic activity in CF1 mouse assessed as inhibition of maximal electroshock-induced seizures at 30 mg/kg, ip after 0.5 hrs; type: functional, organism-based; design: dose 30 mg/kg
Mus musculus [10] = test: Neurotoxicity in CF1 mouse assessed as protection against motor impairment at 30 mg/kg, ip after 4 hrs by rotarod test; type: functional, organism-based; design: dose 30 mg/kg
Rattus norvegicus [11] = test: Antiallodynic activity in rat assessed as protection against spinal nerve ligation-induced neuropathic pain at 80 mg/kg, ip after 180 mins; type: functional, organism-based; design: dose 80 mg/kg
Mus musculus [12] = test: Antiepileptic activity in CF1 mouse assessed as inhibition of subcutaneous pentylenetetrazole-induced seizures at 100 mg/kg, ip after 0.5 hrs; type: functional, organism-based; design: dose 100 mg/kg
Mus musculus [13] = test: Antiepileptic activity in CF1 mouse assessed as inhibition of subcutaneous pentylenetetrazole-induced seizures at 300 mg/kg, ip after 0.5 hrs; type: functional, organism-based; design: dose 300 mg/kg
Mus musculus [14] = test: Neurotoxicity in CF1 mouse assessed as protection against motor impairment at 100 mg/kg, ip after 0.5 hrs by rotarod test; type: functional, organism-based; design: dose 100 mg/kg
Mus musculus [15] = test: Neurotoxicity in CF1 mouse assessed as protection against motor impairment at 30 mg/kg, ip after 0.5 hrs by rotarod test; type: functional, organism-based; design: dose 30 mg/kg
Mus musculus [16] = test: Neurotoxicity in CF1 mouse assessed as protection against motor impairment at 100 mg/kg, ip after 4 hrs by rotarod test; type: functional, organism-based; design: dose 100 mg/kg
Mus musculus [17] = test: Antiepileptic activity in CF1 mouse assessed as inhibition of subcutaneous pentylenetetrazole-induced seizures at 30 mg/kg, ip after 4 hrs; type: functional, organism-based; design: dose 30 mg/kg
Rattus norvegicus [18] = test: Antiallodynic activity in rat assessed as protection against spinal nerve ligation-induced neuropathic pain at 80 mg/kg, ip after 240 mins; type: functional, organism-based; design: dose 80 mg/kg
Rattus norvegicus [19] = test: Antiallodynic activity in rat assessed as protection against spinal nerve ligation-induced neuropathic pain at 80 mg/kg, ip after 30 mins; type: functional, organism-based; design: dose 80 mg/kg
Rattus norvegicus [20] = test: Antiallodynic activity in rat assessed as protection against spinal nerve ligation-induced neuropathic pain at 80 mg/kg, ip after 60 mins; type: functional, organism-based; design: dose 80 mg/kg
Mus musculus [21] = test: Antiepileptic activity in CF1 mouse assessed as inhibition of maximal electroshock-induced seizures at 30 mg/kg, ip after 4 hrs; type: functional, organism-based; design: dose 30 mg/kg
Mus musculus [22] = test: Antiepileptic activity in CF1 mouse assessed as inhibition of subcutaneous pentylenetetrazole-induced seizures at 300 mg/kg, ip after 4 hrs; type: functional, organism-based; design: dose 300 mg/kg
Mus musculus [23] = test: Antiepileptic activity in CF1 mouse assessed as inhibition of maximal electroshock-induced seizures at 100 mg/kg, ip after 0.5 hrs; type: functional, organism-based; design: dose 100 mg/kg
Rattus norvegicus [24] = test: Anticonvulsant activity in albino Sprague-Dawley rat assessed as protection against pilocarpine-induced seizure at 65 mg/kg, ip; type: functional, organism-based; design: dose 65 mg/kg
Mus musculus [25] = test: Antiepileptic activity in CF1 mouse assessed as inhibition of subcutaneous pentylenetetrazole-induced seizures at 100 mg/kg, ip after 4 hrs; type: functional, organism-based; design: dose 100 mg/kg
Rattus norvegicus [26] = test: Anticonvulsant activity in albino Sprague-Dawley rat assessed as protection against pilocarpine-induced seizure at 130 mg/kg, ip treated after 30 mins of pilcarpine challenge; type: functional, organism-based; design: dose 130 mg/kg
Mus musculus [27] = test: Neurotoxicity in CF1 mouse assessed as protection against motor impairment at 300 mg/kg, ip after 0.5 hrs by rotarod test; type: functional, organism-based; design: dose 300 mg/kg
Mus musculus [28] = test: Neurotoxicity in CF1 mouse assessed as protection against motor impairment at 300 mg/kg, ip after 4 hrs by rotarod test; type: functional, organism-based; design: dose 300 mg/kg
Rattus norvegicus [29] = test: Anticonvulsant activity in ip dosed albino Sprague-Dawley rat assessed as protection against pilocarpine-induced seizure; type: functional
Rattus norvegicus [30] = test: Anticonvulsant activity in albino Sprague-Dawley rat assessed as protection against pilocarpine-induced seizure at 450 mg/kg, ip; type: functional, organism-based; design: dose 450 mg/kg
Rattus norvegicus [31] = test: Anticonvulsant activity in albino Sprague-Dawley rat assessed as protection against pilocarpine-induced seizure at 600 mg/kg, ip treated after 30 mins of pilcarpine challenge; type: functional, organism-based; design: dose 600 mg/kg

| Compound | ED50 (Mus musculus [1]) | ED50 (Rattus norvegicus [2]) | Activity (Mus musculus [4]) | Activity (Mus musculus [6]) | Activity (Mus musculus [7]) | Activity (Mus musculus [8]) | Activity (Mus musculus [9]) | Activity (Mus musculus [10]) | Activity (Mus musculus [12]) | Activity (Mus musculus [13]) | Activity (Mus musculus [14]) | Activity (Mus musculus [15]) | Activity (Mus musculus [16]) | Activity (Mus musculus [17]) | Activity (Mus musculus [21]) | Activity (Mus musculus [22]) | Activity (Mus musculus [23]) | Activity (Mus musculus [25]) | Activity (Mus musculus [27]) | Activity (Mus musculus [28]) | other results |
| --- | --- | --- | --- | --- | --- | --- | --- | --- | --- | --- | --- | --- | --- | --- | --- | --- | --- | --- | --- | --- | --- |
| CCCC(C(N)=O)C(C)C (stereo unspecified) | 22 mg/kg | 42 mg/kg |  |  |  |  |  |  |  |  |  |  |  |  |  |  |  |  |  |  | ratio (Rattus norvegicus [3]): 0.52 |
| CC(C)(C)CC(N)=O |  |  | inactive | inactive | inactive | inactive | inactive | inactive | inactive | inactive | inactive | inactive | inactive | inactive | inactive | inactive | inactive |  |  |  | Activity (Rattus norvegicus [5]): inactive; Activity (Rattus norvegicus [11]): inactive; Activity (Rattus norvegicus [18]): inactive; Activity (Rattus norvegicus [19]): inactive; Activity (Rattus norvegicus [20]): inactive |
| CCCC(C(N)=O)C(C)(C)C (stereo unspecified) |  |  | inactive | Active | Active |  | inactive | inactive | inactive | Active |  | inactive | inactive | inactive | inactive | inactive |  | inactive |  |  | Activity (Rattus norvegicus [24]): Active; Activity (Rattus norvegicus [26]): Active |
| CNC(=O)CC(C)(C)C |  |  | inactive | inactive | inactive | inactive | inactive | inactive | inactive | inactive | inactive | inactive | inactive | inactive | inactive | inactive | inactive | inactive | inactive | inactive | Activity (Rattus norvegicus [5]): inactive; Activity (Rattus norvegicus [11]): inactive; Activity (Rattus norvegicus [18]): inactive; Activity (Rattus norvegicus [19]): inactive; Activity (Rattus norvegicus [20]): inactive |
| CCC(C)C(N)=O (stereo unspecified) |  |  | inactive | inactive | inactive | inactive | inactive | inactive | inactive | inactive | inactive | inactive | inactive | inactive | inactive | inactive | inactive | inactive | inactive | inactive | Activity (Rattus norvegicus [5]): inactive; Activity (Rattus norvegicus [19]): inactive; Activity (Rattus norvegicus [20]): inactive |
| CCCC(CCC)C(N)=O [VALPROMIDE] | 32 mg/kg | 61 mg/kg |  |  |  |  |  |  |  |  |  |  |  |  |  |  |  |  |  |  | ratio (Rattus norvegicus [3]): 0.52 |
| CCCC(C)C(N)=O (stereo unspecified) |  |  | inactive | inactive | inactive | inactive | inactive | inactive | inactive | inactive | inactive | inactive | inactive | inactive | inactive | inactive | inactive | inactive | inactive | inactive | Activity (Rattus norvegicus [19]): inactive; Activity (Rattus norvegicus [20]): inactive |
| CC(C)C(C(N)=O)C(C)C | 51 mg/kg | 58 mg/kg |  |  |  |  |  |  |  |  |  |  |  |  |  |  |  |  |  |  | ratio (Rattus norvegicus [3]): 0.88 |
| CCC(C)C(C(N)=O)C(C)C (stereo unspecified) | inactive | 50 mg/kg | inactive | Active | inactive | inactive | inactive | inactive | Active | Active | Active | inactive | inactive | inactive | inactive | inactive | Active | inactive | Active |  |  |
| CCCC(C(N)=O)C(C)CC (stereo unspecified) | inactive | 49 mg/kg | inactive | Active | inactive | inactive | inactive | inactive | inactive | Active | inactive | inactive | inactive | inactive | inactive | inactive |  | inactive |  | inactive | Activity (Rattus norvegicus [24]): Active; Activity (Rattus norvegicus [26]): Active; ED50 (Rattus norvegicus [29]): 84 mg/kg; ED97 (Rattus norvegicus [29]): 149 mg/kg |
| CC(C)C(C)C(N)=O (stereo unspecified) |  |  | inactive | inactive | inactive | inactive | inactive | inactive | inactive | inactive | inactive | inactive | inactive | inactive | inactive | inactive | inactive | inactive | inactive | inactive | Activity (Rattus norvegicus [30]): Active; Activity (Rattus norvegicus [31]): Active |
| CCCCC(CC)C(=O)NC(N)=O (stereo unspecified) |  |  | inactive | Active | inactive | inactive | inactive | inactive | inactive | Active | inactive | inactive | inactive | inactive | inactive | inactive |  | inactive | Active | inactive | Activity (Rattus norvegicus [5]): inactive; Activity (Rattus norvegicus [11]): inactive; ED50 (Rattus norvegicus [29]): 247 mg/kg; ED97 (Rattus norvegicus [29]): 439 mg/kg; Activity (Rattus norvegicus [18]): inactive; Activity (Rattus norvegicus [19]): inactive; Activity (Rattus norvegicus [20]): inactive |
| CCC(C)C(CC)C(N)=O (stereo unspecified) [VALNOCTAMIDE] | 29 mg/kg | 52 mg/kg |  |  |  |  |  |  |  |  |  |  |  |  |  |  |  |  |  |  | ratio (Rattus norvegicus [3]): 0.56 |
